Reference: patent US20090029956A1, “Substance mixture” (priority 2005, published 2009)

Tested on: human ciliary cells
Assay: Flicker frequency and regeneration capability of human ciliary cells, photometric method
Format: cell-based
Details: for Mean value in percent, 20 min test Solution: (II) / Mean value in percent, 20 min NaCl 0.9% (III): Time I = 100; for Mean value in percent, 20 min NaCl 0.9% (III): Time III (regeneration)
Protocol: In comparison with this, the seriously damaging effect of preservatives (on the basis of benzalkonium chloride, BAC) used in conventional cortisone preparations on human ciliary cells was compared. The flicker frequency was determined in a manner known per se by means of a photometric method. Solutions and fluticasone propionate and mixed solutions of fluticasone propionate with N-chlorotaurine sodium (NCT) were prepared in accordance with the following table: Mucous membrane cells were first incubated with an isotonic NaCl solution for 20 minutes (Time I), subsequently incubated with the solutions A, B and C for 20 minutes (Time II) and subsequently incubated in an isotonic solution for a further 20 minutes (Time III). Parallel to this, […] mucous membrane cells were incubated according to the same pattern in comparison with BAC solutions (concentrations of 0.04 mg/ml; 0.1 mg/ml; 0.2 mg/ml; 0.5 mg/ml). The results of the regeneration capability of the ciliary cells after treatment with the solutions A, B and C were compared with the results after the treatment with the BAC solutions.

## benzalkonium chloride [BAC]
0.04 mg/ml BAC
  Mean value in percent, 20 min test Solution: (II): 96.6%
  Mean value in percent, 20 min NaCl 0.9% (III): 100%
0.1 mg/ml BAC
  Mean value in percent, 20 min test Solution: (II): 91.9%
  Mean value in percent, 20 min NaCl 0.9% (III): 93.6%
0.2 mg/ml BAC
  Mean value in percent, 20 min test Solution: (II): 63.5%
  Mean value in percent, 20 min NaCl 0.9% (III): 19.4%
0.5 mg/ml BAC
  Mean value in percent, 20 min test Solution: (II): 0%
  Mean value in percent, 20 min NaCl 0.9% (III): 0%
Treatment with more than 0.1 mg/ml benzalkonium chloride
  Recovery of ciliary cells after treatment: remain permanently damaged
